Test results: patent US9937153B2, “Oral pharmaceutical formulation of omarigliptin” (Merck Sharp & Dohme Corp., priority 2013, dated 2018)

Assays:
[1] = Comparative salt stability of pharmaceutical formulations after 1 week; type: physicochemical; details: formulation as in Example 3
Method: Samples were made with 1% Citric Acid or Na2CO3 by first coating a mortar with mannitol. Omarigliptin was then triturated using the mortar and pestle with 0.1000 g mannitol then with 0.1000 g mannitol & 0.1000 g citric acid or Na2CO3 and then with equal amounts mannitol. The triturate was added to the remaining ingredients and blended initially with mortar and pestle and then transferred into a glass bottle and blended with a blender at medium speed for 15 mins. Magnesium stearate was passed through a 250 micron screen and the required quantity was dispensed and added to the powders in the bottle. The mixture was blended for 1 minute at medium speed. Tablets were compressed using a press having ¼″ normal concave punches at 100 mg unit weight:
Fumarate, phosphate and hydrochloride salts of omarigliptin were made and used in the manufacture of pharmaceutical formulations as described in Example 3. The pharmaceutical formulations containing the fumerate, phosphate and hydrochloride salts of omarigliptin as well as pharmaceutical formulations containing the free base were tested under various conditions for stability.

[2] = Formulation work on chemical stability of omarigliptin; type: physicochemical
Excerpt: One concern with developing an oral pharmaceutical formulation of omarigliptin is the chemical stability of the compound. […] Also omarigliptin stability is critically sensitive to drug loading with lower drug loadings becoming increasingly unstable in any formulation drug product. […] This degradation process with respect to free amines is described in Robertson et al., Maillard's Reaction and its Impliations for Amine Drugs in the Pharmaceutical Industry, Digital Edition of American Pharmaceutical Review, Volume 15, Issue 3, April 2012.

Compound: CS(=O)(=O)n1cc2c(n1)CN([C@H]1CO[C@H](c3cc(F)ccc3F)[C@@H](N)C1)C2 [Free Base I, (2R,3S,5R)-2-(2,5-Difluorophenyl)-5-[2-(methylsulfonyl)-2,6-dihydropyrrolo[3,4-c]pyrazol-5(4H)-yl]tetrahydro-2H-pyran-3-amine]
- % Area ([1]; 5° C./50% RH closed): 98.8%
- % LC ([1]; 5° C./50% RH closed): 88.5%
- % Area ([1]; 50° C./75% RH/open): 97.1%
- % LC ([1]; 50° C./75% RH/open): 82.0%
- Total Degs. (Area %) ([1]; 50° C./75% RH/open): 1.7 Area %
- % Area ([1]; 50° C./closed): 97.9%
- % LC ([1]; 50° C./closed): 85.9%
- Total Degs. (Area %) ([1]; 50° C./closed): 0.9 Area %

Compound: CS(=O)(=O)n1cc2c(n1)CN([C@H]1CO[C@H](c3cc(F)ccc3F)[C@@H](N)C1)C2.O=C(O)/C=C/C(=O)O [Fumerate]
- % Area ([1]; 5° C./50% RH closed): 95.9%
- % LC ([1]; 5° C./50% RH closed): 79.6%
- % Area ([1]; 50° C./75% RH/open): 93.8%
- % LC ([1]; 50° C./75% RH/open): 69.5%
- Total Degs. (Area %) ([1]; 50° C./75% RH/open): 2.0 Area %
- % Area ([1]; 50° C./closed): 94.3%
- % LC ([1]; 50° C./closed): 75.9%
- Total Degs. (Area %) ([1]; 50° C./closed): 1.6 Area %

Compound: CS(=O)(=O)n1cc2c(n1)CN(C1COC(c3cc(F)ccc3F)C(N)C1)C2.Cl (centres unmarked) [HCl]
- % Area ([1]; 5° C./50% RH closed): 98.69%
- % LC ([1]; 5° C./50% RH closed): 75.5%
- % Area ([1]; 50° C./75% RH/open): 95.3%
- % LC ([1]; 50° C./75% RH/open): 62.5%
- Total Degs. (Area %) ([1]; 50° C./75% RH/open): 3.6 Area %
- % Area ([1]; 50° C./closed): 97.6%
- % LC ([1]; 50° C./closed): 71.8%
- Total Degs. (Area %) ([1]; 50° C./closed): 1.3 Area %

Compound: CS(=O)(=O)n1cc2c(n1)CN([C@H]1CO[C@H](c3cc(F)ccc3F)[C@@H](N)C1)C2 [omarigliptin, (2R,3S,5R)-2-(2,5-Difluorophenyl)-5-[2-(methylsulfonyl)-2,6-dihydropyrrolo[3,4-c]pyrazol-5(4H)-yl]tetrahydro-2H-pyran-3-amine]
- sensitivity to oxidation [2]: sensitive to oxidation
- sensitivity to acid and base catalyzed hydrolysis ([2]; early formulation work): sensitive to acid and base catalyzed hydrolysis
- sensitivity to Maillard degradation (browning) ([2]; with excipients or other impurities that contain reducible sugar impurities): sensitive to Maillard degradation

Compound: Phosphate
- % Area ([1]; 5° C./50% RH closed): 96.8%
- % LC ([1]; 5° C./50% RH closed): 76.5%
- % Area ([1]; 50° C./75% RH/open): 92.0%
- % LC ([1]; 50° C./75% RH/open): 54.4%
- Total Degs. (Area %) ([1]; 50° C./75% RH/open): 4.8 Area %
- % Area ([1]; 50° C./closed): 94.0%
- % LC ([1]; 50° C./closed): 70.8%
- Total Degs. (Area %) ([1]; 50° C./closed): 2.9 Area %
